Measurements from patent publication US8207172B2 (Bayer Intellectual Property GmbH, priority 2004, dated 2012).
Counter-ions that a name gives are not always drawn.

Experiments:
[1] = tested on: A431 cells (human epidermoid carcinoma); test: In vitro tumor cell proliferation assay (Cell Titer-Glo luminescent cell viability), A431; format: cell-based; settings: A-431, 72 h, 72 hours of drug exposure, ATP luminescence readout, read-out: IC50, anti-proliferative activity (inhibition of cell proliferation)
How it was run: (§1)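 CellTiter-Glo luminescence (ATP content of metabolically active cells) after 72 h compound exposure at 37° C gave IC50s.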

[2] = tested on: BT474 (human breast carcinoma); test: In vitro tumor cell proliferation assay (Cell Titer-Glo luminescent cell viability), BT474; format: cell-based; settings: BT-474, 72 h, BT474 cells, 72 hours of drug exposure, ATP luminescence readout, read-out: IC50, anti-proliferative activity (inhibition of cell proliferation)
How it was run: as §1

Structure (SMILES) | IC50 [1] | IC50 [2]
Clc1cc(Nc2ncnc3sc4c(c23)CCc2nn(CCBr)cc2-4)ccc1OCc1ccccn1 [Example 101, 2-(2-bromoethyl)-N-[3-chloro-4-(pyridin-2-ylmethoxy)phenyl]-4,5-dihydro-2H-pyrimido[5′,4′:4,5]thieno[2,3-e]indazol-6-amine] | ≤ 50 µM | ≤ 1 µM
C#Cc1cccc(Nc2ncnc3sc4c(c23)CCc2nn(CCN3CCN(C)CC3)cc2-4)c1 [Example 51, N-(3-ethynylphenyl)-2-[2-(4-methylpiperazin-1-yl)ethyl]-4,5-dihydro-2H-pyrimido[5′,4′:4,5]thieno[2,3-e]indazol-6-amine] | ≤ 5 µM | ≤ 50 µM
CN1CCN(CCn2cc3c(n2)CCc2c-3sc3ncnc(Nc4ccc(OCc5ccccn5)c(Cl)c4)c23)CC1 [Example 102, N-[3-chloro-4-(pyridin-2-ylmethoxy)phenyl]-2-[2-(4-methylpiperazin-1-yl)ethyl]-4,5-dihydro-2H-pyrimido[5′,4′:4,5]thieno[2,3-e]indazol-6-amine] | ≤ 5 µM | ≤ 1 µM
Fc1ccc(Nc2ncnc3sc4c(c23)CCc2nn(CCN3CCN(c5cnccn5)CC3)cc2-4)cc1Cl [Example 22, N-(3-chloro-4-fluorophenyl)-2-[2-(4-pyrazin-2-ylpiperazin-1-yl)ethyl]-4,5-dihydro-2H-pyrimido[5′,4′:4,5]thieno[2,3-e]indazol-6-amine] | ≤ 5 µM | ≤ 5 µM
O=C(CN1CCOCC1)N1CCC(Cn2cc3c(n2)CCc2c-3sc3ncnc(Nc4ccc(OCc5cccc(F)c5)c(Cl)c4)c23)CC1 [Example 238, N-{3-chloro-4-[(3-fluorobenzyl)oxy]phenyl}-2-{[1-(morpholin-4-ylacetyl)piperidin-4-yl]methyl}-4,5-dihydro-2H-pyrimido[5′,4′:4,5]thieno[2,3-e]indazol-6-amine] | ≤ 5 µM | ≤ 1 µM
CS(=O)(=O)CCNC(=O)Cn1ncc2c1CCc1c-2sc2ncnc(Nc3ccc(OCc4cccc(F)c4)c(Cl)c3)c12 [Example 204, 2-[6-({3-chloro-4-[(3-fluorobenzyl)oxy]phenyl}amino)-4,5-dihydro-3H-pyrimido[5′,4′:4,5]thieno[2,3-e]indazol-3-yl]-N-[2-(methylsulfonyl)ethyl]acetamide] | ≤ 50 µM | ≤ 1 µM
CCN1CCN(CCn2cc3c(n2)CCc2c-3sc3ncnc(Nc4ccc(F)c(Cl)c4)c23)CC1 [Example 36, N-(3-chloro-4-fluorophenyl)-2-[2-(4-ethylpiperazin-1-yl)ethyl]-4,5-dihydro-2H-pyrimido[5′,4′:4,5]thieno[2,3-e]indazol-6-amine] | ≤ 5 µM | ≤ 5 µM
Cc1cccc(COc2ccc(Nc3ncnc4sc5c(c34)CCc3n[nH]cc3-5)cc2Cl)n1 [Example 120, N-{3-chloro-4-[(6-methylpyridin-2-yl)methoxy]phenyl}-4,5-dihydro-2H-pyrimido[5′,4′:4,5]thieno[2,3-e]indazol-6-amine] | ≤ 5 µM | ≤ 5 µM
C=CCn1ncc2c1CCc1c-2sc2ncnc(Nc3ccc(OCc4cccc(F)c4)c(Cl)c3)c12 [Example 129, 3-allyl-N-{3-chloro-4-[(3-fluorobenzyl)oxy]phenyl}-4,5-dihydro-3H-pyrimido[5′,4′:4,5]thieno[2,3-e]indazol-6-amine] | ≤ 50 µM | ≤ 1 µM
CC(C)(C)OC(=O)N1CCN(CCn2cc3c(n2)CCc2c-3sc3ncnc(Nc4ccc(F)c(Cl)c4)c23)CC1 [Example 27, tert-butyl 4-(2-{6-[(3-chloro-4-fluorophenyl)amino]-4,5-dihydro-2H-pyrimido[5′,4′:4,5]thieno[2,3-e]indazol-2-yl}ethyl)piperazine-1-carboxylate] | ≤ 5 µM | ≤ 5 µM
CC(C)N1CCC(CCn2cc3c(n2)CCc2c-3sc3ncnc(Nc4ccc(OCc5cccc(F)c5)c(Cl)c4)c23)CC1 [Example 252, N-{3-chloro-4-[(3-fluorobenzyl)oxy]phenyl}-2-[2-(1-isopropylpiperidin-4-yl)ethyl]-4,5-dihydro-2H-pyrimido[5′,4′:4,5]thieno[2,3-e]indazol-6-amine] | ≤ 5 µM | ≤ 1 µM
Fc1cccc(COc2ccc(Nc3ncnc4sc5c(c34)CCc3c-5cnn3CCN3CCOCC3)cc2Cl)c1 [Example 86, N-{3-chloro-4-[(3-fluorobenzyl)oxy]phenyl}-3-(2-morpholin-4-ylethyl)-4,5-dihydro-3H-pyrimido[5′,4′:4,5]thieno[2,3-e]indazol-6-amine] | ≤ 50 µM | ≤ 1 µM
COCCNCCn1ncc2c1CCc1c-2sc2ncnc(Nc3ccc(OCc4ccccn4)c(Cl)c3)c12 [Example 113, N-[3-chloro-4-(pyridin-2-ylmethoxy)phenyl]-3-{2-[(2-methoxyethyl)amino]ethyl}-4,5-dihydro-3H-pyrimido[5′,4′:4,5]thieno[2,3-e]indazol-6-amine] | ≤ 50 µM | ≤ 1 µM
OCCN(CCO)C[C@@H](O)Cn1cc2c(n1)CCc1c-2sc2ncnc(Nc3ccc(OCc4cccc(F)c4)c(Cl)c3)c12 [Example 144, (2R)-1-[bis(2-hydroxyethyl)amino]-3-[6-({3-chloro-4-[(3-fluorobenzyl)oxy]phenyl}amino)-4,5-dihydro-2H-pyrimido[5′,4′:4,5]thieno[2,3-e]indazol-2-yl]propan-2-ol] | ≤ 50 µM | ≤ 1 µM
Fc1cccc(COc2ccc(Nc3ncnc4sc5c(c34)CCc3c-5cnn3CCCN3CCCCC3)cc2Cl)c1 [Example 273] | ≤ 5 µM | ≤ 1 µM
CC(C)(C)[Si](C)(C)OCCn1cc2c(n1)CCc1c-2sc2ncnc(Nc3ccc(OCc4ccccc4)c(Cl)c3)c12 [Example 123, N-[4-(benzyloxy)-3-chlorophenyl]-2-(2-{[tert-butyl(dimethyl)silyl]oxy}ethyl)-4,5-dihydro-2H-pyrimido[5′,4′:4,5]thieno[2,3-e]indazol-6-amine] | ≤ 50 µM | ≤ 5 µM
CCN1CCC(Cn2cc3c(n2)CCc2c-3sc3ncnc(Nc4ccc(OCc5cccc(F)c5)c(Cl)c4)c23)CC1 [Example 244, N-{3-chloro-4-[(3-fluorobenzyl)oxy]phenyl}-2-[(1-ethylpiperidin-4-yl)methyl]-4,5-dihydro-2H-pyrimido[5′,4′:4,5]thieno[2,3-e]indazol-6-amine] | ≤ 5 µM | ≤ 1 µM
CCCN1CCC(Cn2cc3c(n2)CCc2c-3sc3ncnc(Nc4ccc(OCc5cccc(F)c5)c(Cl)c4)c23)CC1 [Example 243, N-{3-chloro-4-[(3-fluorobenzyl)oxy]phenyl}-2-[(1-propylpiperidin-4-yl)methyl]-4,5-dihydro-2H-pyrimido[5′,4′:4,5]thieno[2,3-e]indazol-6-amine] | ≤ 5 µM | ≤ 1 µM
O[C@H](Cn1ccnc1)Cn1cc2c(n1)CCc1c-2sc2ncnc(Nc3ccc(OCc4cccc(F)c4)c(Cl)c3)c12 [Example 141, (2R)-1-[6-({3-chloro-4-[(3-fluorobenzyl)oxy]phenyl}amino)-4,5-dihydro-2H-pyrimido[5′,4′:4,5]thieno[2,3-e]indazol-2-yl]-3-(1H-imidazol-1-yl)propan-2-ol trifluoroacetate (salt)] | ≤ 50 µM | ≤ 1 µM
CNC(=O)Cn1cc2c(n1)CCc1c-2sc2ncnc(Nc3ccc(OCc4cccc(F)c4)c(Cl)c3)c12 [Example 188, 2-[6-({3-chloro-4-[(3-fluorobenzyl)oxy]phenyl}amino)-4,5-dihydro-2H-pyrimido[5′,4′:4,5]thieno[2,3-e]indazol-2-yl]-N-methylacetamide] | ≤ 50 µM | ≤ 1 µM
